The target in test [1] is T1, neurokinin-1 (NK-1) receptor (Homo sapiens, UniProt P25103).
T1 construct: endogenously expresses the neurokinin-1 (NK-1) receptor; endogenous in cells; host or cells: U373 human glioblastoma-astrocytoma cells (membranes)
Nature of the test: NK-1 Binding assay ([125I] Substance P competition, U373 cell membranes). The note with it: Bolton Hunter labeled [125I] Substance P, 30 min at 20° C. In short, it runs like this:
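U373 human glioblastoma-astrocytoma membranes (endogenous NK-1; 5–10 μg/well) competed against Bolton Hunter [125I] Substance P […] with drug at 10000–0.01 nM, 30 min at 20° C, in Tris-HCl pH 7.4 with 3 mM MnCl2 and protease inhibitors. Filtration binding; non-specific with 2 μM L-733,060. IC50 from displacement curve midpoint; Ki via Cheng–Prusoff.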

The target of test [2] is T2, human serotonin transporters (Homo sapiens, UniProt P31645).
T2 construct: expressed in transfected cells
T2 sequence (P31645 whole entry): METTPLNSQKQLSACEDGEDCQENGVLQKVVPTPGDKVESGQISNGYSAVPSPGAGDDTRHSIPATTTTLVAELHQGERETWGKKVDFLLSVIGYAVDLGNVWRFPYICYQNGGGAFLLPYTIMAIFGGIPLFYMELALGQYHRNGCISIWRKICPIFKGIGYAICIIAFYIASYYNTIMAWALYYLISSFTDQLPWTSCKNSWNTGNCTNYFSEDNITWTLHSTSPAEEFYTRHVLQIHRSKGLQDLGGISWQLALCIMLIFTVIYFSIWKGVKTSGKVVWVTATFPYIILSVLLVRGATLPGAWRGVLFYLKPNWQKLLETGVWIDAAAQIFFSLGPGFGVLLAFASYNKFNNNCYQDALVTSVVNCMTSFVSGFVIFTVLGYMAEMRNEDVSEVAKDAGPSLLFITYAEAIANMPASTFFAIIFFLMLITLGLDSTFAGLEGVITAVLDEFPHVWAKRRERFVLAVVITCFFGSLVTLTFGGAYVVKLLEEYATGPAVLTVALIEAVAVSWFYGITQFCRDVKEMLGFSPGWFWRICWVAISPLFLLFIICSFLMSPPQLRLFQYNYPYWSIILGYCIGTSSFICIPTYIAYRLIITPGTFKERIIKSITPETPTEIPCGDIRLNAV
Nature of the test: Serotonin transporter binding assay ([3H]-citalopram competition, HEK-hSERT cell membranes). The note with it: 1 nM [3H]-citalopram, 1 hr at 25° C., read-out: SERT IC50. The method, boiled down:
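HEK-293 membranes stably expressing human SERT were incubated 1 hr at 25° C with 1 nM [3H]-citalopram and increasing test compound concentrations in 50 mM Tris pH 7.4, 120 mM NaCl, 5 mM KCl, then filtered. Non-specific binding was defined with 10 μM fluoxetine. IC50 is the displacement-curve midpoint; Ki via Cheng-Prusoff.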

The structures appear in SMILES notation.

T1 sequence (P25103 whole entry): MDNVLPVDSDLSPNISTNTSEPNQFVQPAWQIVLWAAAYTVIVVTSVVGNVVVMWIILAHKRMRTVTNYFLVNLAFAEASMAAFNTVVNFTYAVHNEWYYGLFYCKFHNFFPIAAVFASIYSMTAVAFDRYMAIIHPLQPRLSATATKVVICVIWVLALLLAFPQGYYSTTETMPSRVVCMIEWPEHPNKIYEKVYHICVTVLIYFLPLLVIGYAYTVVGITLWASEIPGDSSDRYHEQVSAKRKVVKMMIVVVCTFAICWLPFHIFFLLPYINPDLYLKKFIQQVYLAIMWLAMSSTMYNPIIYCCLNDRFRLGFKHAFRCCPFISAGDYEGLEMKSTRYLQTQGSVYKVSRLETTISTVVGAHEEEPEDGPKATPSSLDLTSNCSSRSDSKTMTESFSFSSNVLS

On to `Cc1cccc(C(O)(CCN)COCc2cc(C(F)(F)F)cc(C(F)(F)F)c2)c1` (stereo not shown) [Example 17, 1-(3,5-bis(trifluoromethyl)benzyloxy)-4-amino-2-m-tolylbutan-2-ol], for which the IC50 in test [1] and in test [2] was 1 to 100 nM throughout.

On to `NCCC(O)(COCc1cccc(F)c1)c1ccccc1` (stereo not shown) [Example 58, 1-(3-fluorobenzyloxy)-4-amino-2-phenylbutan-2-ol], for which the results for the IC50 in test [1] and in test [2] were greater than 300 nM and 100 to 300 nM, respectively.

`Cc1cc(C)cc(COCC(O)(CCN)c2ccccc2)c1` (stereo not shown) [Example 53, 1-(3,5-dimethylbenzyloxy)-4-amino-2-phenylbutan-2-ol]: the IC50 in test [1] and in test [2] was 1 to 100 nM each time.

`Cc1ccc(F)cc1C(O)(CCN)COCc1cc(C(F)(F)F)cc(C(F)(F)F)c1` (stereo not shown) [Example 29, 1-(3,5-bis(trifluoromethyl)benzyloxy)-4-amino-2-(5-fluoro-2-methylphenyl)butan-2-ol]: the IC50 in test [1] and in test [2] was 1 to 100 nM in each case.

Regarding `NCCC(O)(COCc1cc(Cl)cc(Cl)c1)c1ccccc1` (stereo not shown) [Example 61, 1-(3,5-dichlorobenzyloxy)-4-amino-2-phenylbutan-2-ol], the IC50 in test [1] and in test [2] was 1 to 100 nM throughout.

As for `COc1ccc(OC)c(C(O)(CCN)COCc2cc(C(F)(F)F)cc(C(F)(F)F)c2)c1` (stereo not shown) [Example 27, 1-(3,5-bis(trifluoromethyl)benzyloxy)-4-amino-2-(2,5-dimethoxyphenyl)butan-2-ol], the IC50 – broadly, the concentration that gives 50% inhibition – in test [1] fell in the range of 100 to 300 nM; in test [2], 1 to 100 nM.

For `COc1ccc(F)cc1C(O)(CCN)COCc1cc(C(F)(F)F)cc(C(F)(F)F)c1` (stereo not shown) [Example 25, 1-(3,5-bis(trifluoromethyl)benzyloxy)-4-amino-2-(5-fluoro-2-methoxyphenyl)butan-2-ol], the IC50 in test [1] was in the range of 1 to 100 nM; in test [2], 100 to 300 nM.

As for `CN(C)c1ccc(C(O)(CCN)COCc2cc(C(F)(F)F)cc(C(F)(F)F)c2)cc1` (stereo not shown) [Example 16, 1-(3,5-bis(trifluoromethyl)benzyloxy)-4-amino-2-(4-(dimethylamino)phenyl)butan-2-ol], the IC50 in test [1] and in test [2] was greater than 300 nM throughout.

As to `COc1cccc(C(O)(CCN)COCc2cc(C(F)(F)F)cc(C(F)(F)F)c2)c1` (stereo not shown) [Example 14, 1-(3,5-bis(trifluoromethyl)benzyloxy)-4-amino-2-(3-methoxyphenyl)butan-2-ol], the IC50 in test [1] and in test [2] was 1 to 100 nM throughout.

`COc1ccccc1C(O)(CCN)COCc1cc(C(F)(F)F)cc(C(F)(F)F)c1` (stereo not shown) [Example 45, 1-(3,5-bis(trifluoromethyl)benzyloxy)-4-amino-2-(2-methoxyphenyl)butan-2-ol]: the IC50 in test [1] and in test [2] was 1 to 100 nM throughout.

`NCC(O)(COCc1cc(C(F)(F)F)cc(C(F)(F)F)c1)c1ccccc1` (stereo not shown) [Example 2, 1-(3,5-bis(trifluoromethyl)benzyloxy)-3-amino-2-phenylpropan-2-ol]: the concentration for half-maximal inhibition (IC50) in test [1] and in test [2] was 1 to 100 nM each time.

`Cc1ccc(C(O)(CCN)COCc2cc(C(F)(F)F)cc(C(F)(F)F)c2)c(C)c1` (stereo not shown) [Example 30, 1-(3,5-bis(trifluoromethyl)benzyloxy)-4-amino-2-(2,4-dimethylphenyl)butan-2-ol]: the concentration for half-maximal inhibition (IC50) in test [1] and in test [2] was 1 to 100 nM each time.

For the molecule `COc1ccc(C(O)(CCN)COCc2cc(C(F)(F)F)cc(C(F)(F)F)c2)c(C)c1` (stereo not shown) [Example 28, 1-(3,5-bis(trifluoromethyl)benzyloxy)-4-amino-2-(4-methoxy-2-methylphenyl)butan-2-ol], the results for the IC50 in test [1] and in test [2] were 100 to 300 nM and 1 to 100 nM, respectively.

For the molecule `NCCC(O)(COCc1ccc(OC(F)(F)F)cc1)c1ccccc1` (stereo not shown) [Example 49, 1-(4-(trifluoromethoxy)benzyloxy)-4-amino-2-phenylbutan-2-ol], the IC50 in test [1] and in test [2] was greater than 300 nM in each case.

The record behind these values is patent US7179926B2, “Aryloxyalkylamine NK-1/SSRI inhibitors” (Bristol-Myers Squibb Company, priority 2004, dated 2007).
